Laboratory results as given in patent US10160747B2, “Compounds and methods for kinase modulation, and indications therefor” (Plexxikon Inc., priority 2016, dated 2018).

What was measured:
[1] = tested on: MOLM-14 D835Y (endogenous FLT3 ITD and transfected FLT3 D835Y); test: MOLM-14 D835Y cell proliferation assay (CellTiter-Glo); type: cell-based; details: Homo sapiens, MOLM-14, 72 h; 3 d growth, GMean
Summary of the method: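 MOLM-14 derivatives carrying D835Y or F691L, selected under escalating AC220, were seeded at 1×10^4 cells/well and exposed to an 8-point 1:3 compound series (1 to 0.00046 μM, 0.2% DMSO final) for three days at 37° C., 5% CO2. CellTiter-Glo luminescence (ATP content) versus concentration gave IC50.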

BA/F3-FLT3-ITD + D835Y = target: T1, BA/F3-FLT3-ITD + D835Y (Homo sapiens, UniProt P36888, D835Y, cells depend on it, form not given); test: Engineered BA/F3 cell growth assay, FLT3 ITD/D835Y; type: cell-based, murine; details: 3 d growth
T1 sequence (P36888 with tags, fused parts or gaps INS600HVDFREYEYD/D835Y): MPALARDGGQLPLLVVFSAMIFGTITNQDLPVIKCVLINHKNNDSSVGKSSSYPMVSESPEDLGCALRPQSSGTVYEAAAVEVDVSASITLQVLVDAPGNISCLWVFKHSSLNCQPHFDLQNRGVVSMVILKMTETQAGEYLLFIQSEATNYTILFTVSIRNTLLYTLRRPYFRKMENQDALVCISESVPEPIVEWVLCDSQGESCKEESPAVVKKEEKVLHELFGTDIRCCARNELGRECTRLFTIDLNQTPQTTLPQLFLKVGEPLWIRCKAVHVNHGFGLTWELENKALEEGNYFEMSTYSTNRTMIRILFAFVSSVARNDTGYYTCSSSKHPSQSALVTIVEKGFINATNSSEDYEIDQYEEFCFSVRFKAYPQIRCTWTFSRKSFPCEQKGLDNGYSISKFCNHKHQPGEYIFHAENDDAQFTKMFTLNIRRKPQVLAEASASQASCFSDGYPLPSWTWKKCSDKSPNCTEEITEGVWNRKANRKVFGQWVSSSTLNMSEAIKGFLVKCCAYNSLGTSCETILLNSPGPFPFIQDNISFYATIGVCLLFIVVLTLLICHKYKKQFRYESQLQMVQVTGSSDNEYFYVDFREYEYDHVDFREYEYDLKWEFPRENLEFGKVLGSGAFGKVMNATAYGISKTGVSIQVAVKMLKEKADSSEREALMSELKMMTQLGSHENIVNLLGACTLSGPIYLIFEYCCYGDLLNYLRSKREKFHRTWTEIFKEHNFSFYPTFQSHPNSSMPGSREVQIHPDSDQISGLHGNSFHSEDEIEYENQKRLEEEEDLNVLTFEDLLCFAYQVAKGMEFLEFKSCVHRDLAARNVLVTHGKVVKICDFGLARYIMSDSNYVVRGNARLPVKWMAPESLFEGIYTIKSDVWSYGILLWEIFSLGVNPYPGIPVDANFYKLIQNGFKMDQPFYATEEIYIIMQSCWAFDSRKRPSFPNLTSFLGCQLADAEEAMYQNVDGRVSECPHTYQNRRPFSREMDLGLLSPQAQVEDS
Summary of the method: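 Murine Ba/F3 cells transfected with full-length FLT3 ITD/D835Y, grown without IL-3 so growth depends on FLT3. Seeded at 1×10^4 cells/well, 8-point 1:3 series to 1 μM top (0.2% DMSO), 3 days at 37 °C. CellTiter-Glo luminescence (ATP) versus concentration gave IC50.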

| SMILES | IC50 [1] | GI50 (BA/F3-FLT3-ITD + D835Y) |
| --- | --- | --- |
| Cn1cc(Nc2ncc(-c3ccc(CC(=O)Nc4ccnc(C5CC5)c4)c(F)c3)cn2)cn1 [Compound P-0098, N-(2-cyclopropyl-4-pyridyl)-2-[2-fluoro-4-[2-[(1-methylpyrazol-4-yl)amino]pyrimidin-5-yl]phenyl]acetamide] | 0.0001 to 10 µM | 0.0001 to 10 µM |
| COc1ncc(NC(=O)Cc2ccc(-c3cnc(Nc4cn(C)cn4)nc3)cc2F)cc1C(F)(F)F [Compound P-0101, 2-[2-fluoro-4-[2-[(1-methylimidazol-4-yl)amino]pyrimidin-5-yl]phenyl]-N-[6-methoxy-5-(trifluoromethyl)-3-pyridyl]acetamide] | 0.0001 to 10 µM | 0.0001 to 10 µM |
| O=C(Cc1ccc(-c2cnc3[nH]c(-c4ccc(N5CCOCC5)nc4)cc3c2)cn1)Nc1ccnc(C(F)(F)F)c1 [Compound P-0183, 2-[5-[2-(6-morpholino-3-pyridyl)-1H-pyrrolo[2,3-b]pyridin-5-yl]-2-pyridyl]-N-[2-(trifluoromethyl)-4-pyridyl]acetamide] | 0.0001 to 10 µM | 0.0001 to 10 µM |
| N#Cc1ccc(-c2cc3cc(-c4ccc(CC(=O)Nc5cncc(C(F)(F)F)c5)cc4F)cnc3[nH]2)cn1 [Compound P-0195, 2-[4-[2-(6-cyano-3-pyridyl)-1H-pyrrolo[2,3-b]pyridin-5-yl]-3-fluoro-phenyl]-N-[5-(trifluoromethyl)-3-pyridyl]acetamide] | 0.0001 to 10 µM | 0.0001 to 10 µM |
| Cn1cc(Nc2ncc(-c3ccc(CC(=O)Nc4cccnc4)cc3)cn2)cn1 [Compound P-0131, 2-[4-[2-[(1-methylpyrazol-4-yl)amino]pyrimidin-5-yl]phenyl]-N-(3-pyridyl)acetamide] | 0.0001 to 10 µM | 0.0001 to 10 µM |
| Cn1cnc(Nc2ncc(-c3ccc(CC(=O)Nc4cnc(Cl)c(C(F)(F)F)c4)c(F)c3)cn2)c1 [Compound P-0100, N-[6-chloro-5-(trifluoromethyl)-3-pyridyl]-2-[2-fluoro-4-[2-[(1-methylimidazol-4-yl)amino]pyrimidin-5-yl]phenyl]acetamide] | 0.0001 to 10 µM | 0.0001 to 10 µM |
| Cc1ncc(NC(=O)Cc2ccc(-c3cnc(Nc4cn(C)cn4)nc3)cc2)cc1C(F)(F)F [Compound P-0150, 2-[4-[2-[(1-methylimidazol-4-yl)amino]pyrimidin-5-yl]phenyl]-N-[6-methyl-5-(trifluoromethyl)-3-pyridyl]acetamide] | 0.0001 to 10 µM | 0.0001 to 10 µM |
| COc1cc(NC(=O)Cc2ccc(-c3cnc(Nc4cnn(C)c4)nc3)cc2)ccn1 [Compound P-0153, N-(2-methoxy-4-pyridyl)-2-[4-[2-[(1-methylpyrazol-4-yl)amino]pyrimidin-5-yl]phenyl]acetamide] | 0.0001 to 10 µM | 0.0001 to 10 µM |
| Cc1ncc(NC(=O)Cc2ccc(-c3cnc(Nc4cn(C)cn4)nc3)cc2F)cc1C(F)(F)F [Compound P-0099, 2-[2-fluoro-4-[2-[(1-methylimidazol-4-yl)amino]pyrimidin-5-yl]phenyl]-N-[6-methyl-5-(trifluoromethyl)-3-pyridyl]acetamide] | 0.0001 to 10 µM | 0.0001 to 10 µM |
| Cn1cc(Nc2ncc(-c3ccc(CC(=O)Nc4cnc(F)c(C(C)(F)F)c4)c(F)c3)cn2)cn1 [Compound P-0105, N-[5-(1,1-difluoroethyl)-6-fluoro-3-pyridyl]-2-[2-fluoro-4-[2-[(1-methylpyrazol-4-yl)amino]pyrimidin-5-yl]phenyl]acetamide] | 0.0001 to 10 µM | 0.0001 to 10 µM |
| COc1cncc(NC(=O)Cc2ccc(-c3cnc(Nc4cnn(C)c4)nc3)cc2)c1 [Compound P-0133, N-(5-methoxy-3-pyridyl)-2-[4-[2-[(1-methylpyrazol-4-yl)amino]pyrimidin-5-yl]phenyl]acetamide] | 0.0001 to 10 µM | 0.0001 to 10 µM |
| CCn1cc(Nc2ncc(-c3ccc(CC(=O)Nc4cnc(Cl)c(C(F)(F)F)c4)cc3)cn2)cn1 [Compound P-0165, N-[6-chloro-5-(trifluoromethyl)-3-pyridyl]-2-[4-[2-[(1-ethylpyrazol-4-yl)amino]pyrimidin-5-yl]phenyl]acetamide] | 0.0001 to 10 µM | 0.0001 to 10 µM |
| Cn1cc(Nc2ncc(-c3ccc(CC(=O)Nc4cccc(C(C)(C)C#N)c4)cc3)cn2)cn1 [Compound P-0158, N-[3-(1-cyano-1-methyl-ethyl)phenyl]-2-[4-[2-[(1-methylpyrazol-4-yl)amino]pyrimidin-5-yl]phenyl]acetamide] | 0.0001 to 10 µM | 0.0001 to 10 µM |
| Cn1cc(Nc2ncc(-c3ccc(CC(=O)Nc4ccc(C(F)(F)F)nc4)cc3)cn2)cn1 [Compound P-0095, 2-[4-[2-[(1-methylpyrazol-4-yl)amino]pyrimidin-5-yl]phenyl]-N-[6-(trifluoromethyl)-3-pyridyl]acetamide] | 0.0001 to 10 µM | 0.0001 to 10 µM |
| Cn1cnc(Nc2ncc(-c3ccc(CC(=O)Nc4cnc(F)c(C(C)(F)F)c4)cc3)cn2)c1 [Compound P-0168, N-[5-(1,1-difluoroethyl)-6-fluoro-3-pyridyl]-2-[4-[2-[(1-methylimidazol-4-yl)amino]pyrimidin-5-yl]phenyl]acetamide] | 0.0001 to 10 µM | 0.0001 to 10 µM |
| COc1ccccc1CNC(=O)Cc1ccc(-c2cnc(Nc3cnn(C)c3)nc2)cc1 [Compound P-0160, N-[(2-methoxyphenyl)methyl]-2-[4-[2-[(1-methylpyrazol-4-yl)amino]pyrimidin-5-yl]phenyl]acetamide] | 0.0001 to 10 µM | 0.0001 to 10 µM |
| O=C(Cc1ccc(-c2cnc3[nH]c(-c4ccccc4)cc3c2)c(F)c1)Nc1cccc(C(F)(F)F)c1 [Compound P-0003, 2-[3-fluoro-4-(2-phenyl-1H-pyrrolo[2,3-b]pyridin-5-yl)phenyl]-N-[3-(trifluoromethyl)phenyl]acetamide] | 0.0001 to 10 µM | 0.0001 to 10 µM |
| COc1ncc(NC(=O)Cc2ccc(-c3cnc(Nc4cn(C)cn4)nc3)cc2)cc1C(F)(F)F [Compound P-0149, N-[6-methoxy-5-(trifluoromethyl)-3-pyridyl]-2-[4-[2-[(1-methylimidazol-4-yl)amino]pyrimidin-5-yl]phenyl]acetamide] | 0.0001 to 10 µM | 0.0001 to 10 µM |
| N#Cc1cc(-c2cc3cc(-c4ccc(CC(=O)Nc5ccnc(C(F)(F)F)c5)nc4)cnc3[nH]2)ccn1 [Compound P-0182, 2-[5-[2-(2-cyano-4-pyridyl)-1H-pyrrolo[2,3-b]pyridin-5-yl]-2-pyridyl]-N-[2-(trifluoromethyl)-4-pyridyl]acetamide] | 0.0001 to 10 µM | 0.0001 to 10 µM |
| Cn1cc(Nc2ncc(-c3ccc(CC(=O)NCc4cncc(C(F)(F)F)c4)cc3)cn2)cn1 [Compound P-0161, 2-[4-[2-[(1-methylpyrazol-4-yl)amino]pyrimidin-5-yl]phenyl]-N-[[5-(trifluoromethyl)-3-pyridyl]methyl]acetamide] | 0.0001 to 10 µM | 0.0001 to 10 µM |
| Cn1cc(Nc2ncc(-c3ccc(CC(=O)Nc4cnc(Cl)c(C(F)(F)F)c4)c(F)c3)cn2)cn1 [Compound P-0092, N-[6-chloro-5-(trifluoromethyl)-3-pyridyl]-2-[2-fluoro-4-[2-[(1-methylpyrazol-4-yl)amino]pyrimidin-5-yl]phenyl]acetamide] | 0.0001 to 10 µM | 0.0001 to 10 µM |
| Cc1n[nH]c2ncc(-c3ccc(CC(=O)Nc4cncc(C(F)(F)F)c4)cc3F)cc12 [Compound P-0177, 2-[3-fluoro-4-(3-methyl-1H-pyrazolo[3,4-b]pyridin-5-yl)phenyl]-N-[5-(trifluoromethyl)-3-pyridyl]acetamide] | 0.0001 to 10 µM | 0.0001 to 10 µM |
| Cn1cc(Nc2ncc(-c3ccc(CC(=O)NCc4ncccc4C(F)(F)F)cc3)cn2)cn1 [Compound P-0159, 2-[4-[2-[(1-methylpyrazol-4-yl)amino]pyrimidin-5-yl]phenyl]-N-[[3-(trifluoromethyl)-2-pyridyl]methyl]acetamide] | 0.0001 to 10 µM | 0.0001 to 10 µM |
| Cn1cc(Nc2ncc(-c3ccc(CC(=O)Nc4ccnc(C(F)(F)F)n4)cc3)cn2)cn1 [Compound P-0137, 2-[4-[2-[(1-methylpyrazol-4-yl)amino]pyrimidin-5-yl]phenyl]-N-[2-(trifluoromethyl)pyrimidin-4-yl]acetamide] | 0.0001 to 10 µM | 0.0001 to 10 µM |
